Test results as given in patent US12569495B2, “Inhibitors of porcine reproductive and respiratory syndrome virus” (UNIVERSITY OF CONNECTICUT, priority 2020, dated 2026).
Several values for one entry are separate records, joined by “and”; a condition that tells them apart may be missing. Identical values can stand only once.

Legend:
Rat acute toxicity study = type: in vivo, Sprague Dawley laboratory male rats
Method: The study was conducted as: • 1. Eight 10-week Sprague Dawley laboratory male rats (˜260 g each) were randomly selected into two groups (n=4), with group 1 for control and group 2 for B7-treatment. • 2. Day 0, injection of B7 drug. The intramuscular (IM) injection was vehicle for group 1, and 4 mg/kg B7 per rat for group 2, with 0.15 mL of volume per rat, to the left thigh region. The B7 was dissolved in vehicle containing 30% DMSO and 50% propylene glycol (PG), and 20% 20 mM Tris·HCl, pH 8.0. • 3. Days 1-7 observation of rats with daily body weight and temperature measurement and making records of any abnormal behavior. • 4. Day 7 necropsy: Euthanize the rats with CO2, immediately followed by blood sample collection from heart. Conduct postmortem rat gross-anatomic pathology analysis (brain, heart, lung, liver, kidney, spleen). • 5. Conduct clinical pathology analysis (CBC/Chemistry by IDDEX Bioanalytics) for the collected blood samples.

type I strain (Lelystad) = test: PRRSV titration assay, type I strain; type: cell-based; conditions: 15 μM; PAMs; 24 h
Method: For PRRSV infection of PAM cells, PAMs were seeded one day prior to infection. Control cells were treated with DMSO and test cells were treated with the selected screening compounds (5-20 μM) for 4 h before inoculation, during the 1 h PRRSV inoculation, and for 24 h after inoculation. Cells were inoculated with VR-2332, SDSU73, NADC30 or Lelystad PRRSV at MOI=0.1 for 1 h. The 24 h cell medium supernatant was stored at −80° C. until use.
For PRRSV titration assay, MARC145 cells were seeded in 48-well plates and grew to ˜80% density before inoculation. Viral supernatants were prepared by 10-fold serial dilution, and 100 μl of the dilutions was added per well in six replicates. Inocula were removed from cells after 2 h and replaced with 0.5 mL of DMEM supplemented with 2% FBS, 2 mM glutamine, 0.1 mM MEM non-essential amino acids, 50 U/mL penicillin, and 50 μg/mL streptomycin (Invitrogen). Cells were cultured at 37° C. for 6 days and any cytopathic effects were observed and recorded. The PRRSV titer was calculated using the Reed and Muench method and expressed as median tissue culture infectious dose (TCID50/mL). Reed and Muench, Am. J. Epidemiol. 27(3): 493-497 (1938).
The inhibitory effect of B7 was further tested on multiple strains of PRRSV. […]

[1] = rat, IM 4 mg/kg, Day 7 blood, mean n=4

SMILES: Cc1cc(F)ccc1S(=O)(=O)Nc1nc2ccccc2nc1Nc1cccc(S(=O)(=O)N2CCOCC2)c1 [Compound B7, 4-fluoro-2-methyl-N-[3-(3-morpholin-4-ylsulfonylanilino)quinoxalin-2-yl]benzenesulfonamide]
- Lipemia Index (Rat acute toxicity study; rat, IM 4 mg/kg, Day 7 blood): Normal
- ALB/GLOB ratio (Rat acute toxicity study; [1]): 1.2
- ALP (Rat acute toxicity study; [1]): 277.5 U/L
- ALT (Rat acute toxicity study; [1]): 95.5 U/L
- AST (Rat acute toxicity study; [1]): 210.3 U/L and 210.25 U/L
- Albumin (Rat acute toxicity study; [1]): 3.5 g/dL
- BUN (Rat acute toxicity study; [1]): 16.8 mg/dL
- BUN/Creatinine Ratio (Rat acute toxicity study; [1]): 76.7
- Basophil (Rat acute toxicity study; [1]): 13.5 µL⁻¹
- Basophils (%) (Rat acute toxicity study; [1]): 0.3%
- Bicarbonate TCO2 (Rat acute toxicity study; [1]): 32.8 mmol/L
- Bilirubin - Conjugated (Rat acute toxicity study; [1]): 0.0 mg/dL
- Bilirubin - Unconjugated (Rat acute toxicity study; [1]): 0.1 mg/dL
- Calcium (Rat acute toxicity study; [1]): 11.8 mg/dL
- Chloride (Rat acute toxicity study; [1]): 97.0 mmol/L
- Cholesterol (Rat acute toxicity study; [1]): 76.0 mg/dL
- Creatine kinase (Rat acute toxicity study; [1]): 585.5 U/L
- Creatinine (Rat acute toxicity study; [1]): 0.2 mg/dL
- Eosinophil (Rat acute toxicity study; [1]): 19.0 µL⁻¹
- Eosinophils (%) (Rat acute toxicity study; [1]): 0.5%
- Globulin (Rat acute toxicity study; [1]): 2.9 g/dL
- Glucose (Rat acute toxicity study; [1]): 175.5 mg/dL
- HCT (Rat acute toxicity study; [1]): 50.1% and 50.075%
- HGB (Rat acute toxicity study; [1]): 14.4 g/dL and 14.35 g/dL
- Lymphocyte (Rat acute toxicity study; [1]): 3188.0 µL⁻¹
- Lymphocytes (%) (Rat acute toxicity study; [1]): 83.1% and 83.125%
- MCH (Rat acute toxicity study; [1]): 18.9 pg
- MCHC (Rat acute toxicity study; [1]): 28.7 g/dL
- MCV (Rat acute toxicity study; [1]): 65.8 fL
- Monocyte (Rat acute toxicity study; [1]): 179.5 µL⁻¹
- Monocytes (%) (Rat acute toxicity study; [1]): 4.8%
- NA/K Ratio (Rat acute toxicity study; [1]): 22.3
- Neutrophil (Rat acute toxicity study; [1]): 425.0 µL⁻¹
- Neutrophil (%) (Rat acute toxicity study; [1]): 11.4% and 11.35%
- Phosphorus (Rat acute toxicity study; [1]): 13.0 mg/dL
- Potassium (Rat acute toxicity study; [1]): 6.7 mmol/L
- RBC (Rat acute toxicity study; [1]): 7.6 M/μL L
- Sodium (Rat acute toxicity study; [1]): 145.8 mmol/L
- Total Bilirubin (Rat acute toxicity study; [1]): 0.1 mg/dL
- Total Protein (Rat acute toxicity study; [1]): 6.4 g/dL
- WBC (Rat acute toxicity study; [1]): 3.8 K/μL
- blood cell counts, B7-treatment versus control (Rat acute toxicity study; single IM 4 mg/kg, Day 7): no obvious change for blood cell counts
- blood chemistry analysis, B7 versus control (Rat acute toxicity study; single IM 4 mg/kg, Day 7): only ALP and AST were changed slightly with statistical significances
- gross pathology, kidney (Rat acute toxicity study; single IM 4 mg/kg, Day 7 necropsy, T4 = B7 rat): cortical surface of kidney had multiple, mild tan discolorations
- gross pathology, liver (Rat acute toxicity study; single IM 4 mg/kg, Day 7 necropsy, T = B7 rats, C = control rats): multifocal to coalescing mild pale tan discoloration on the surface of liver of C2, T3 and T4
- daily weight gain and body temperature (Rat acute toxicity study; single IM 4 mg/kg, Days 1-7): normal daily weigh gain and body temperature
- signs of abnormality during the 7-day study (Rat acute toxicity study; single IM 4 mg/kg, n=4): No signs of abnormality were observed
- log reduction of viral titer for the type I strain (Lelystad) (type I strain (Lelystad)): 2.2 log
